Measurements from patent US6737383B1, “Herbicidal oxadiazolidines” (priority 1999, dated 2004).

Tests used:
bedstraw = test: Test B pre/postemergence bedstraw; assay type: in vivo, Galium aparine
Outline: (§1)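 Response is a visual 0-to-10 score relative to untreated plants, where 0 means no effect and 10 means complete control, taken twelve to sixteen days after application. Treatments went onto soil at planting and onto foliage of 1- to 4-leaf plants, using a surfactant-containing non-phytotoxic solvent.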

blackgrass = test: Test B pre/postemergence blackgrass; assay type: in vivo, Alopecurus myosuroides
Outline: as §1

surinam grass = test: Test B pre/postemergence surinam grass; assay type: in vivo, Brachiaria decumbens
Outline: as §1

cocklebur = test: Test B pre/postemergence cocklebur; assay type: in vivo, Xanthium strumarium
Outline: as §1

corn = test: Test B pre/postemergence corn; assay type: in vivo, Zea mays
Outline: as §1

crabgrass = test: Test B pre/postemergence crabgrass; assay type: in vivo, Digitaria sanguinalis
Outline: as §1

giant foxtail = test: Test B pre/postemergence giant foxtail; assay type: in vivo, Setaria faberii
Outline: as §1

morningglory = test: Test B pre/postemergence morningglory; assay type: in vivo, Ipomoea hederacea
Outline: as §1

pigweed = test: Test B pre/postemergence pigweed; assay type: in vivo, Amaranthus retroflexus
Outline: as §1

rape = test: Test B pre/postemergence rape; assay type: in vivo, Brassica napus
Outline: as §1

soybean = test: Test B pre/postemergence soybean; assay type: in vivo, Glycine max
Outline: as §1

sugar beet = test: Test B pre/postemergence sugar beet; assay type: in vivo, Beta vulgaris
Outline: as §1

velvetleaf = test: Test B pre/postemergence velvetleaf; assay type: in vivo, Abutilon theophrasti
Outline: as §1

wheat = test: Test B pre/postemergence wheat; assay type: in vivo, Triticum aestivum
Outline: as §1

wild oat = test: Test B pre/postemergence wild oat; assay type: in vivo, Avena fatua
Outline: as §1

purple nutsedge = test: Test B pre/postemergence purple nutsedge; assay type: in vivo, Cyperus rotundus
Outline: as §1

[1] = Postemergence, Rate 31 g/ha, visual rating, scale 0 to 10 (0 no effect, 10 complete control)
[2] = Postemergence, Rate 125 g/ha, scale 0 to 10, 0 is no effect, 10 is complete control
[3] = Postemergence, Rate 250 g/ha, scale 0 to 10, 0 is no effect, 10 is complete control
[4] = Preemergence, Rate 31 g/ha, visual rating, scale 0 to 10 (0 no effect, 10 complete control)
[5] = Preemergence, Rate 62 g/ha, scale 0 to 10 (0 no effect, 10 complete control)
[6] = Preemergence, Rate 250 g/ha, scale of 0 to 10 where 0 is no effect and 10 is complete control
[7] = Rate 62 g/ha, Postemergence, scale of 0 to 10 where 0 is no effect and 10 is complete control

## CC(C)N(C(=O)n1oc(=O)n(C2(C)CC2)c1=O)c1ccc(F)cc1 [Compound 362]
bedstraw; [1]
  Bedstraw plant response rating: 5
bedstraw; [2]
  Plant response rating, Bedstraw: 9
bedstraw; [3]
  Plant response rating, Bedstraw: 9
bedstraw; [4]
  Bedstraw plant response rating: 8
bedstraw; [5]
  Plant response rating, Bedstraw: 9
bedstraw; Preemergence, Rate 125 g/ha
  Bedstraw plant response rating (0 to 10 scale): 9
bedstraw; [6]
  Bedstraw plant response rating: 10
bedstraw; [7]
  Bedstraw plant response rating: 5
blackgrass; [1]
  Blackgrass plant response rating: 8
blackgrass; [2]
  Plant response rating, Blackgrass: 8
blackgrass; [3]
  Plant response rating, Blackgrass: 8
blackgrass; [4]
  Blackgrass plant response rating: 8
blackgrass; [5]
  Plant response rating, Blackgrass: 9
blackgrass; Preemergence, Rate 125 g/ha
  Blackgrass plant response rating (0 to 10 scale): 10
blackgrass; [6]
  Blackgrass plant response rating: 10
blackgrass; [7]
  Blackgrass plant response rating: 8
Surinam grass; [1]
  B. signalgrass plant response rating: 1
Surinam grass; [2]
  Plant response rating, B. signalgrass: 5
Surinam grass; [3]
  Plant response rating, B. signalgrass: 7
Surinam grass; [4]
  B. signalgrass plant response rating: 2
Surinam grass; [5]
  Plant response rating, B. signalgrass: 4
Surinam grass; Preemergence, Rate 125 g/ha
  B. signalgrass plant response rating (0 to 10 scale, 0 is no effect, 10 is complete control): 6
Surinam grass; [6]
  B. signalgrass plant response rating: 7
Surinam grass; [7]
  B. signalgrass plant response rating: 2
cocklebur; [1]
  Cocklebur plant response rating: 0
cocklebur; [2]
  Plant response rating, Cocklebur: 0
cocklebur; [4]
  Cocklebur plant response rating: 0
cocklebur; [5]
  Plant response rating, Cocklebur: 0
cocklebur; Preemergence, Rate 125 g/ha
  Cocklebur plant response rating (0 to 10 scale): 0
cocklebur; [6]
  Cocklebur plant response rating: 0
cocklebur; [7]
  Cocklebur plant response rating: 0
corn; [1]
  Corn plant response rating: 0
corn; [2]
  Plant response rating, Corn: 0
corn; [3]
  Plant response rating, Corn: 0
corn; [4]
  Corn plant response rating: 0
corn; [5]
  Plant response rating, Corn: 0
corn; Preemergence, Rate 125 g/ha
  Corn plant response rating (0 to 10 scale): 3
corn; [6]
  Corn plant response rating: 9
corn; [7]
  Corn plant response rating: 0
crabgrass; [1]
  Crabgrass plant response rating: 3
crabgrass; [2]
  Plant response rating, Crabgrass: 6
crabgrass; [3]
  Plant response rating, Crabgrass: 6
crabgrass; [5]
  Plant response rating, Crabgrass: 5
crabgrass; Preemergence, Rate 125 g/ha
  Crabgrass plant response rating (0 to 10 scale): 8
crabgrass; [6]
  Crabgrass plant response rating: 8
crabgrass; [7]
  Crabgrass plant response rating: 3
Giant foxtail; [1]
  Giant foxtail plant response rating: 5
Giant foxtail; [2]
  Plant response rating, Giant foxtail: 8
Giant foxtail; [3]
  Plant response rating, Giant foxtail: 9
Giant foxtail; [5]
  Plant response rating, Giant foxtail: 10
Giant foxtail; Preemergence, Rate 125 g/ha
  Giant foxtail plant response rating (0 to 10 scale): 10
Giant foxtail; [6]
  Giant foxtail plant response rating: 10
Giant foxtail; [7]
  Giant foxtail plant response rating: 6
morningglory; [1]
  Morningglory plant response rating: 0
morningglory; [2]
  Plant response rating, Morningglory: 1
morningglory; [3]
  Plant response rating, Morningglory: 1
morningglory; [5]
  Plant response rating, Morningglory: 0
morningglory; Preemergence, Rate 125 g/ha
  Morningglory plant response rating (0 to 10 scale): 4
morningglory; [6]
  Morningglory plant response rating: 6
morningglory; [7]
  Morningglory plant response rating: 1
pigweed; [1]
  Redroot pigweed plant response rating: 0
pigweed; [2]
  Plant response rating, Redroot pigweed: 4
pigweed; [3]
  Plant response rating, Redroot pigweed: 6
pigweed; [5]
  Plant response rating, Redroot pigweed: 8
pigweed; Preemergence, Rate 125 g/ha
  Redroot pigweed plant response rating (0 to 10 scale): 10
pigweed; [6]
  Redroot pigweed plant response rating: 10
pigweed; [7]
  Redroot pigweed plant response rating: 2
rape; [1]
  Rape plant response rating: 0
rape; [2]
  Plant response rating, Rape: 0
rape; [3]
  Plant response rating, Rape: 0
rape; [5]
  Plant response rating, Rape: 0
rape; Preemergence, Rate 125 g/ha
  Rape plant response rating (0 to 10 scale): 3
rape; [6]
  Rape plant response rating: 6
rape; [7]
  Rape plant response rating: 0
soybean; [1]
  Soybean plant response rating: 4
soybean; [2]
  Plant response rating, Soybean: 5
soybean; [3]
  Plant response rating, Soybean: 6
soybean; [5]
  Plant response rating, Soybean: 0
soybean; Preemergence, Rate 125 g/ha
  Soybean plant response rating (0 to 10 scale): 1
soybean; [6]
  Soybean plant response rating: 6
soybean; [7]
  Soybean plant response rating: 4
Sugar beet; [1]
  Sugarbeets plant response rating: 0
Sugar beet; [2]
  Plant response rating, Sugarbeets: 0
Sugar beet; [3]
  Plant response rating, Sugarbeets: 2
Sugar beet; [5]
  Plant response rating, Sugarbeets: 5
Sugar beet; Preemergence, Rate 125 g/ha
  Sugarbeets plant response rating (0 to 10 scale): 7
Sugar beet; [6]
  Sugarbeets plant response rating: 8
Sugar beet; [7]
  Sugarbeets plant response rating: 0
velvetleaf; [1]
  Velvetleaf plant response rating: 0
velvetleaf; [2]
  Plant response rating, Velvetleaf: 4
velvetleaf; [3]
  Plant response rating, Velvetleaf: 7
velvetleaf; [5]
  Plant response rating, Velvetleaf: 4
velvetleaf; Preemergence, Rate 125 g/ha
  Velvetleaf plant response rating (0 to 10 scale): 6
velvetleaf; [6]
  Velvetleaf plant response rating: 6
velvetleaf; [7]
  Velvetleaf plant response rating: 1
wheat; [1]
  Wheat plant response rating: 0
wheat; [2]
  Plant response rating, Wheat: 4
wheat; [3]
  Plant response rating, Wheat: 6
wheat; [5]
  Plant response rating, Wheat: 7
wheat; Preemergence, Rate 125 g/ha
  Wheat plant response rating (0 to 10 scale): 8
wheat; [6]
  Wheat plant response rating: 8
wheat; [7]
  Wheat plant response rating: 2
Wild oat; [1]
  Wild oats plant response rating: 0
Wild oat; [2]
  Plant response rating, Wild oats: 6
Wild oat; [3]
  Plant response rating, Wild oats: 6
Wild oat; [5]
  Plant response rating, Wild oats: 7
Wild oat; Preemergence, Rate 125 g/ha
  Wild oats plant response rating (0 to 10 scale): 10
Wild oat; [6]
  Wild oats plant response rating: 10
Wild oat; [7]
  Wild oats plant response rating: 3
Purple nutsedge; [1]
  Nutsedge plant response rating: 0
Purple nutsedge; [2]
  Plant response rating, Nutsedge: 0
Purple nutsedge; [3]
  Plant response rating, Nutsedge: 0
Purple nutsedge; [5]
  Plant response rating, Nutsedge: 0
Purple nutsedge; Preemergence, Rate 125 g/ha
  Nutsedge plant response rating (0 to 10 scale): 0
Purple nutsedge; [6]
  Nutsedge plant response rating: 3
Purple nutsedge; [7]
  Nutsedge plant response rating: 0
